Source: the NIST ThermoML archive (doi:10.1021/acs.jced.5b00242)
Numbers after ± are expanded uncertainties.

Assays:
[1] = xn = mol fraction of the nth substance listed; conditions: 101 kPa, Liquid; for viscosity: Stabinger Viscometer; for mass density: Vibrating tube method
[2] = refractive index (Na D-line) (dimensionless); xn = mol fraction of the nth substance listed; conditions: 101 kPa, Liquid, Standard Abbe refractometry

CC[n+]1ccn(C)c1.N[C@@H](CO)C(=O)[O-] [3-ethyl-1-methyl-1H-imidazolium L-serinate] + CCn1cc[n+](C)c1.N#C[C-](C#N)C#N
Conditions	mass density, [1] [kg/m3]	refractive index, [2]	viscosity, [1] [mPa·s]
293.15 K, x2 = 0	1206.8 ± 18	1.52699 ± 0.0041	3796.8 ± 560
293.15 K, x2 = 0.2502	1177.2 ± 17	1.52075 ± 0.0011	586.84 ± 75
293.15 K, x2 = 0.5005	1141.8 ± 16	1.51865 ± 0.00078	168.52 ± 9.8
293.15 K, x2 = 0.7497	1112.9 ± 16	1.51552 ± 0.001	42.01 ± 1.1
298.15 K, x2 = 0	1203.7 ± 18	1.52565 ± 0.0041	2235.5 ± 290
298.15 K, x2 = 0.2502	1173.6 ± 17	1.51929 ± 0.0011	384.17 ± 46
298.15 K, x2 = 0.5005	1138.4 ± 16	1.51718 ± 0.00078	120.68 ± 6.2
298.15 K, x2 = 0.7497	1109.3 ± 16	1.5139 ± 0.001	33.37 ± 0.85
303.15 K, x2 = 0	1200.5 ± 18	1.52429 ± 0.0041	1376.2 ± 160
303.15 K, x2 = 0.2502	1170.1 ± 17	1.51784 ± 0.0011	261.07 ± 30
303.15 K, x2 = 0.5005	1135 ± 16	1.51563 ± 0.00078	88.95 ± 4.2
303.15 K, x2 = 0.7497	1105.8 ± 16	1.51228 ± 0.001	26.98 ± 0.69
308.15 K, x2 = 0	1197.3 ± 18	1.52294 ± 0.0041	882.82 ± 88
308.15 K, x2 = 0.2502	1166.8 ± 17	1.51636 ± 0.0011	183.69 ± 20
308.15 K, x2 = 0.5005	1131.7 ± 16	1.51409 ± 0.00078	67.28 ± 3
308.15 K, x2 = 0.7497	1102.3 ± 16	1.51064 ± 0.001	22.2 ± 0.57
313.15 K, x2 = 0	1194 ± 18	1.52159 ± 0.0041	588.27 ± 51
313.15 K, x2 = 0.2502	1163.5 ± 17	1.51489 ± 0.0011	133.41 ± 14
313.15 K, x2 = 0.5005	1128.4 ± 16	1.51254 ± 0.00078	52.28 ± 2.3
313.15 K, x2 = 0.7497	1098.9 ± 16	1.50899 ± 0.001	18.36 ± 0.47
318.15 K, x2 = 0	1190.9 ± 18	1.52022 ± 0.0041	405.12 ± 30
318.15 K, x2 = 0.2502	1160.5 ± 17	1.51343 ± 0.0011	98.94 ± 10
318.15 K, x2 = 0.5005	1125.1 ± 16	1.51099 ± 0.00078	41.25 ± 1.8
318.15 K, x2 = 0.7497	1095.6 ± 15	1.50736 ± 0.001	15.72 ± 0.4
323.15 K, x2 = 0	1187.8 ± 18	1.51887 ± 0.0041	287.6 ± 18
323.15 K, x2 = 0.2502	1157.3 ± 17	1.51199 ± 0.0011	75.39 ± 7.8
323.15 K, x2 = 0.5005	1121.8 ± 16	1.50943 ± 0.00078	33.28 ± 1.5
323.15 K, x2 = 0.7497	1092.2 ± 15	1.50574 ± 0.001	13.48 ± 0.34
328.15 K, x2 = 0	1184.7 ± 18	1.51755 ± 0.0041	209.91 ± 11
328.15 K, x2 = 0.2502	1154 ± 17	1.51051 ± 0.0011	58.75 ± 6
328.15 K, x2 = 0.5005	1118.5 ± 16	1.50784 ± 0.00078	27.29 ± 1.2
328.15 K, x2 = 0.7497	1088.9 ± 15	1.50408 ± 0.001	11.68 ± 0.3
333.15 K, x2 = 0	1181.7 ± 18	1.5162 ± 0.0041	157.29 ± 7.5
333.15 K, x2 = 0.2502	1150.8 ± 17	1.50902 ± 0.0011	46.9 ± 4.8
333.15 K, x2 = 0.5005	1115.1 ± 16	1.50632 ± 0.00078	22.78 ± 1
333.15 K, x2 = 0.7497	1085.6 ± 15	1.50253 ± 0.001	10.07 ± 0.26
338.15 K, x2 = 0	1178.7 ± 18	1.51486 ± 0.0041	119.86 ± 5
338.15 K, x2 = 0.2502	1147.6 ± 17	1.50755 ± 0.0011	37.79 ± 3.9
338.15 K, x2 = 0.5005	1111.9 ± 16	1.50475 ± 0.00078	19.18 ± 0.85
338.15 K, x2 = 0.7497	1082.2 ± 15	1.50093 ± 0.001	9.03 ± 0.23
343.15 K, x2 = 0	1175.7 ± 18	1.51353 ± 0.0041	93.36 ± 3.5
343.15 K, x2 = 0.2502	1144.4 ± 17	1.50611 ± 0.0011	31.01 ± 3.2
343.15 K, x2 = 0.5005	1108.6 ± 16	1.50324 ± 0.00078	16.37 ± 0.73
343.15 K, x2 = 0.7497	1078.9 ± 15	1.49932 ± 0.001	8.03 ± 0.21
348.15 K, x2 = 0	1172.8 ± 18	1.5122 ± 0.0041	74.03 ± 2.5
348.15 K, x2 = 0.2502	1141.2 ± 17	1.50459 ± 0.0011	25.75 ± 2.6
348.15 K, x2 = 0.5005	1105.2 ± 16	1.50173 ± 0.00078	14.12 ± 0.63
348.15 K, x2 = 0.7497	1075.7 ± 15	1.49774 ± 0.001	7.19 ± 0.18
353.15 K, x2 = 0	1169.7 ± 18	1.51084 ± 0.0041	59.91 ± 1.9
353.15 K, x2 = 0.2502	1138 ± 17	1.50318 ± 0.0011	21.14 ± 2.2
353.15 K, x2 = 0.5005	1101.8 ± 16	1.50018 ± 0.00078	12.31 ± 0.55
353.15 K, x2 = 0.7497	1072.3 ± 15	1.49615 ± 0.001	6.36 ± 0.16
